Earlier results as cited in patent publication US6380175B1, “Method for enhancement of delivery of THC by the administration of its prodrugs via the nasal route” (New Millennium Pharmaceutical Research, Inc., priority 1999, dated 2002).

Conditions: room temperature

Structure (SMILES): CCCCCc1cc(O)c2c(c1)OC(C)(C)C1CCC(C)=CC21 (stereo not shown) [THC, Δ-9-tetrahydrocannabinol]
- aqueous solubility: very poor aqueous solubility
